Source: patent publication US20240122923A1, “METHODS OF TREATING HIDRADENITIS SUPPURATIVA” (AbbVie Inc., priority 2022, published 2024)
Several values for one entry are separate records, joined by “and”; a condition that tells them apart may be missing. Equal entries are not always repeated.

Tests used:
[1] = tested on: adult human subjects with moderate to severe Hidradenitis Suppurativa (HS); assay: Phase 2 randomized, double-blind, placebo-controlled study of upadacitinib, efficacy incl. post-hoc analysis through week 40; type: in vivo; conditions: for HiSCR at Week 12, % (N), stratum TNF-Naïve: N=35; for subjects achieving HiSCR at Week 12, n (%): upadacitinib 30 mg QD oral, N=47; for subjects achieving Pain NRS30 at Week 12 among subjects with Baseline NRS ≥ 3, n (%): upadacitinib 30 mg QD, N=33
From the text: This study was a Phase 2, multicenter, randomized, double-blind, parallel-group, placebo-controlled study to evaluate the efficacy and safety of upadacitinib in adult human subjects with moderate to severe Hidradenitis Suppurativa (HS).
The duration of the study was 57 weeks, including an approximately 35-day screening period followed by a 48-week double-blinded treatment period and a 30-day follow-up visit after the last dose of study drug. Subjects were randomized in a 2:1 ratio to 1 of the 2 arms as shown below: • Upadacitinib 30 mg once daily (QD) (N=40): Daily oral doses of upadacitinib 30 mg from the Baseline visit through Period 1 and Period 2. • Placebo (N=20): Placebo for upadacitinib from the Baseline visit up to the Week 12 visit (Period 1). At Week 12, subjects were switched to blinded upadacitinib 15 mg QD through Period 2.
The primary objective of this study was to assess the efficacy and safety of upadacitinib 30 mg QD in adult subjects with moderate to severe HS. The primary efficacy objective was assessed based on the achievement of HiSCR after 12 weeks treatment.
The primary endpoint was Hidradenitis Suppurativa Clinical Response (HiSCR) at Week 12, where HiSCR is defined as at least 50% reduction in the total abscess and inflammatory nodule (AN) count with no increase in abscess count and no increase in draining fistula count relative to Baseline.
The secondary endpoint was Pain Numerical Rating Scale (NRS30) at Week 12: the achievement of at least 30% reduction and at least 1 unit reduction from Baseline in NRS30 in Patient's Global Assessment of Skin Pain (PGA Skin Pain) at Week 12, among subjects with Baseline NRS≥3.
The following additional efficacy endpoints were evaluated: • 1. Experience of flare, defined as an increase in AN count of at least 25% with a minimum increase of 2 relative to Baseline • 2. Change from Baseline in Dermatology Life Quality Index (DLQI) • 3. Change from baseline in Hidradenitis Suppurativa Symptom Assessment (HSSA) • 4. Change from baseline in HS-related swelling, assessed based on the HSSA • 5. Change from baseline in HS-related odor, assessed based on the HSSA • 6. Change from baseline in HS-related worst drainage, assessed based on the HSSA
For the primary and secondary endpoints, comparisons of upadacitinib vs. placebo were made with 3 different analysis strategies, as summarized in Table 1 below:
For the additional endpoints, comparisons were made for upadacitinib vs. historical reference value of placebo, and upadacitinib vs. in-trial placebo subjects.
For categorical variables, the primary approach to handle missing data was Non-Responder Imputation [NRI] incorporating Multiple Imputation [MI]. For continuous variables, missing data was handled by Mixed-effect Model Repeat Measurement (MMRM). Missing data for long-term efficacy in Period 2 were handled based on the observed case (OC).
A post-hoc efficacy assessment through week 40 was performed in the study of Example 1. The analysis included the proportion of patients achieving ≥75% and ≥90% reduction from baseline in AN count with no increase in abscess or draining fistula count (HiSCR 75 and HiSCR 90, respectively) and the proportion of patients achieving ≥55% reduction in International HS Severity Score System endpoint (IHS4-55), which dynamically assesses inflammatory nodules, abscesses, and draining tunnels.

[2] = tested on: adult human subjects with moderate to severe Hidradenitis Suppurativa (HS); assay: as above; type: in vivo; conditions: UPA 30 mg QD; N=47; flare = AN count increase ≥25% with minimum increase of 2
[3] = UPA 30 mg, analysis vs historical reference value of PBO
[4] = UPA 30 mg, analysis vs in-trial PBO
[5] = Week 12, UPA 30 mg, Observed Case, n=39
[6] = Week 40, PBO/UPA 15 mg (switched at week 12), NRI-C, n=19
[7] = Week 40, UPA 30 mg/UPA 30 mg, NRI-C, n=47
[8] = Week 40, UPA 30 mg/UPA 30 mg, Observed Case, n=29

Structure (SMILES): CC[C@@H]1CN(C(=O)NCC(F)(F)F)C[C@@H]1c1cnc2cnc3[nH]ccc3n12 [upadacitinib]
- HiSCR at Week 12, % (N), stratum TNF-IR ([1]; UPA 30 mg, NRI-C, N=12, listed as UPA): 41.7% (N = 12)
- HiSCR at Week 12, % (N), stratum Hurley Stage (III) ([1]; UPA 30 mg, NRI-C, N=23): 39.1% (N = 23)
- HiSCR at Week 12, % (N), stratum Hurley Stage (<III) ([1]; UPA 30 mg, NRI-C, N=24): 37.5% (N = 24)
- HiSCR at Week 12, % (N), stratum TNF-Naïve ([1]; UPA 30 mg, NRI-C): 37.1%
- HiSCR at Week 12, % (N), stratum TNF-Naïve ([1]; UPA 30 mg, NRI-C, listed as UPA): 37.1% (N = 35)
- Change in DLQI at Week 12, LS Mean (SE) [1, 3]: −2.4 (1.05)
- Change in HSSA odor at Week 12, LS Mean (SE) [1, 3]: -1.2
- Change in HSSA swelling at Week 12, LS Mean (SE) [1, 3]: -0.931
- Change in HSSA total symptom at Week 12, LS Mean (SE) [1, 3]: -0.969
- Change in HSSA worst drainage at Week 12, LS Mean (SE) [1, 3]: −1.131 (0.31)
- Change in DLQI at Week 12, LS Mean (SE) [1, 4]: -2.4
- Change in HSSA odor at Week 12, LS Mean (SE) [1, 4]: −1.171 (0.36)
- Change in HSSA swelling at Week 12, LS Mean (SE) [1, 4]: −0.922 (0.34)
- Change in HSSA total symptom at Week 12, LS Mean (SE) [1, 4]: −1.034 (0.27)
- Change in HSSA worst drainage at Week 12, LS Mean (SE) [1, 4]: −1.259 (0.30)
- Patients achieving HiSCR 90, n (%) ([1]; Week 12, UPA 30 mg, NRI-C, n=47, listed as UPA): 8.5% and 4 (8.5)^‡ %
- Patients achieving HiSCR 75, n (%) [1, 5]: 10 (25.6) %
- Patients achieving HiSCR 90, n (%) [1, 5]: 4 (10.3) %
- Patients achieving HiSCR, n (%) [1, 5]: 18 (46.2) %
- Patients achieving IHS4-55, n (%) [1, 5]: 19 (48.7) %
- Patients achieving HiSCR 75, n (%) [1, 6]: 7 (36.8) %
- Patients achieving HiSCR 90, n (%) [1, 6]: 4 (21.1) %
- Patients achieving HiSCR, n (%) [1, 6]: 10 (52.6) %
- Patients achieving IHS4-55, n (%) [1, 6]: 12 (63.2) %
- Patients achieving IHS4-55, n (%) ([1]; Week 40, PBO/UPA 15 mg (switched at week 12), Observed Case, n=14): 85.7%
- Patients achieving IHS4-55, n (%) ([1]; Week 40, PBO/UPA 15 mg (switched at week 12), Observed Case, n=14, listed as UPA): 12 (85.7) %
- Patients achieving HiSCR 75, n (%) [1, 7]: 18 (38.3) %
- Patients achieving HiSCR 90, n (%) [1, 7]: 9 (19.1) %
- Patients achieving HiSCR, n (%) [1, 7]: 22 (46.8) %
- Patients achieving IHS4-55, n (%) [1, 7]: 21 (44.7) %
- Patients achieving HiSCR 75, n (%) [1, 8]: 18 (62.1) %
- Patients achieving IHS4-55, n (%) [1, 8]: 72.4%
- Patients achieving IHS4-55, n (%) ([1]; Week 40, UPA 30 mg/UPA 30 mg, Observed Case, n=29, listed as UPA): 21 (72.4) %
- subjects achieving HiSCR at Week 12, n (%) ([1]; NRI-C): 38.3%
- subjects achieving HiSCR at Week 12, n (%) ([1]; NRI-C, listed as Upadacitinib): 18 (38.3) %
- subjects achieving Pain NRS30 at Week 12 among subjects with Baseline NRS ≥ 3, n (%) ([1]; NRI-C): 36.4%
- subjects achieving Pain NRS30 at Week 12 among subjects with Baseline NRS ≥ 3, n (%) ([1]; NRI-C, listed as UPA): 12 (36.4%)
- subjects achieving Pain NRS30 at Week 12 among subjects with Baseline NRS ≥ 3, n (%) ([1]; NRI-C, listed as Upadacitinib): 12 (36.4) %
- Flare during Period 1, n (%) [2]: 6 (12.8%)
